Laboratory results published in US20080132415A1, “Method For Increasing Maize Yields” (priority 2004, published 2008).
Read-outs that look alike come from different tables or passages of the source. Marks after values point to notes of the source that are not given here.

Columns and labels:
[1] = test system: Pioneer 33K81 hybrid corn; test: Field study of isoxadifen with postemergence corn herbicides (Example 1), hybrid Pioneer 33K81; format: in vivo
Description: Timing of the application of the compounds was at the V6 growth stage (i.e., when there were six visible collars of the corn). Additionally, methylated seed oil (MSO)+28% ureas and ammonium sulfate (UAN) were applied at a concentration of 1% v/v+2.5% v/v.

[2] = test system: Pioneer 33P66 hybrid corn; details: applied at V6 growth stage at 1x field use rates, isoxadifen 37 g/ha where included
Description: The study was conducted in Bloomington, DeKalb and Urbana, Ill. to evaluate the crop response when isoxadifen was used with postemergence corn herbicides. Two hybrid corn species with different levels of tolerance were used in the study: Pioneer 33K81, a species sensitive to plant growth regulators (PGRs), isoxazole, amides and sulfonylureas (SUs); and Pioneer 33P66, a tolerant species. Plots were kept weed-free to eliminate any competition from weeds.
The following herbicides and their respective field use rates were used in the study:
rimsufuron—26 g/ha; nicosulfuron+rimsulfuron—39 g/ha; foramsulfuron—37 g/ha; diflufenzopyr+dicamba—294 g/ha; mesotrione—105 g/ha; and dicamba—560 g/ha. One or more of the herbicides were used with or without isoxadifen—37 g/ha. All herbicides were applied at the 1× labeled field use rates.
Timing of the application of the compounds was at the V6 growth stage (i.e., when there were six visible collars of the corn). Additionally, methylated seed oil (MSO)+28% […] (UAN) were applied at a concentration of 1% v/v+2.5% v/v.

[3] = test system: corn hybrids Pioneer 33K81 and Pioneer 33P66; test: Field study of isoxadifen with postemergence corn herbicides (Example 1), both hybrids or hybrid not stated; format: in vivo
[4] = test system: Golden Harvest hybrid corn; format: in vivo
Excerpt: The hybrid corn species Golden Harvest was used in the study.
On one or more of the herbicides were used in combination with the insecticide chlorpyrifos—841 g/ha and with or without isoxadifen—37 g/ha.
A CO2 backpack sprayer was used to apply the compounds at 187 L/ha at 247 kPa.

[5] = herbicide in combination with chlorpyrifos 841 g/ha and isoxadifen 37 g/ha, seven days post application
[6] = herbicide in combination with chlorpyrifos 841 g/ha, without isoxadifen, seven days post application
[7] = herbicide in combination with chlorpyrifos, without isoxadifen
[8] = percentage of control, herbicide in combination with chlorpyrifos 841 g/ha and isoxadifen 37 g/ha
[9] = percentage of control, herbicide in combination with chlorpyrifos 841 g/ha, without isoxadifen

Compound: COc1c(Cl)ccc(Cl)c1C(=O)O [Dicamba, dicamba]
- PERCENTAGE OF CORN INJURY Pioneer 33K81 ([1]; 7 days post application, applied at V6 growth stage at 1x field use rates, isoxadifen 37 g/ha where included): 25%
- CORN YIELD - PERCENTAGE OF CONTROL Pioneer 33K81 ([1]; percentage of control, applied at V6 growth stage at 1x field use rates, isoxadifen 37 g/ha where included): 81%
- PERCENTAGE OF CORN INJURY Pioneer 33P66 ([2]; 7 days post application): 36%
- CORN YIELD - PERCENTAGE OF CONTROL Pioneer 33P66 ([2]; percentage of control): 89%
- crop injury when tank-mixed with isoxadifen, compared with the same herbicide without isoxadifen ([3]; both hybrids, 7 days after treatment): less crop injury
- CORN INJURY Chlor + Isoxadifen ([4]; in vivo): 37 * %
- CORN INJURY Chlorpyrifos ([4]; in vivo): 65%
- CORN YIELD Chlor + Isoxadifen ([4]; in vivo): 86 * %
- CORN YIELD Chlorpyrifos ([4]; in vivo): 75%
- corn injury compared to the application of the same combination and isoxadifen ([4]; in vivo): significantly more corn injury
- corn yield compared to the application of the same combination and isoxadifen ([4]; in vivo): significantly smaller corn yield

Compound: CS(=O)(=O)c1ccc(C(=O)C2C(=O)CCCC2=O)c([N+](=O)[O-])c1 [Mesotrione, mesotrione]
- difference in adding isoxadifen ([3]; hybrid not stated, data not shown): no significant difference
- CORN INJURY Chlor + Isoxadifen [4, 5]: 12 * %
- CORN INJURY Chlorpyrifos [4, 6]: 34%
- corn injury compared to the application of the same combination and isoxadifen [4, 7]: significantly more corn injury
- corn yield compared to the application of the same combination and isoxadifen [4, 7]: no significant difference
- CORN YIELD Chlor + Isoxadifen [4, 8]: 97%
- CORN YIELD Chlorpyrifos [4, 9]: 97%

Compound: COc1cc(OC)nc(NC(=O)NS(=O)(=O)c2cc(NC=O)ccc2C(=O)N(C)C)n1 [Foramsulfuron, foramsulfuron]
- CORN INJURY Chlor + Isoxadifen [4, 5]: 37 * %
- CORN INJURY Chlorpyrifos [4, 6]: 47%
- corn injury compared to the application of the same combination and isoxadifen [4, 7]: significantly more corn injury
- corn yield compared to the application of the same combination and isoxadifen [4, 7]: significantly smaller corn yield
- CORN YIELD Chlor + Isoxadifen [4, 8]: 92 * %
- CORN YIELD Chlorpyrifos [4, 9]: 82%

Compound: CCS(=O)(=O)c1cccnc1S(=O)(=O)NC(=O)Nc1nc(OC)cc(OC)n1 [Rimsulfuron, rimsulfuron]
- crop injury when tank-mixed with isoxadifen ([1]; P33K81 hybrid corn, addition of isoxadifen, data not shown): less crop injury
- CORN INJURY Chlor + Isoxadifen [4, 5]: 45%
- CORN INJURY Chlorpyrifos [4, 6]: 37%
- corn injury compared to the application of the same combination and isoxadifen [4, 7]: no significant difference
- corn yield compared to the application of the same combination and isoxadifen [4, 7]: significantly smaller corn yield
- CORN YIELD Chlor + Isoxadifen [4, 8]: 95 * %
- CORN YIELD Chlorpyrifos [4, 9]: 65%
